According to publication PMC11912475 (Journal of Medicinal Chemistry, 2025):

Key:
[1] = target: GluN1-GluN2A NMDAR subtype (Homo sapiens, UniProt Q05586+Q12879); assay: FLIPR/Ca2+ assay, NMDAR GluN1-GluN2A subtype in CHO cells; type: cell-based; settings: CHO cells, 10 μM L-glutamate and 10 μM glycine; n.d. = 50% of inhibition could not be reached at the highest concentration used
Method: (§1) These compounds were assessed for their effects on specific heterodimeric NMDAR subtypes stably overexpressed in Chinese Hamster Ovary (CHO) cells. The subtypes tested included GluN1-GluN2A, GluN1-GluN2B, GluN1-GluN2C, and GluN1-GluN2D. CHO cells expressing each of the four NMDAR subtypes were incubated with 10 μM L-glutamate, a concentration known to elicit maximal Ca^2+ influx, serving as the stimulus. Intracellular Ca^2+ levels were subsequently measured to determine the extent of NMDAR activation.
(§2) Assay buffer composition was 145 mM NaCl, 5 mM KCl, 2 mM CaCl2, 1 g/Liter D-(+)-glucose, and 20 mM HEPES (pH 7.3 adjusted with NaOH). Cells were plated at a density of 15.000/well in 384 black/clear bottom plates. […] Cells were kept at 30 °C in 5% CO2 incubator for 24 h. Cells were preloaded for 1 h with 2 μM Fluo-4 Ca^2+-sensitive probe, simultaneously with 2.5 mM probenecid, an inhibitor of nonspecific anion transport, and 500 μM ketamine to avoid cytotoxicity. […] Intracellular Ca^2+ level was monitored by FLIPR (excitation wavelength at 470–495 nm, emission wavelength at 515–575 nm) for 10 s before and 5 min after the addition of test items. All test items, including L-glutamate and glycine, were added simultaneously. […] FLIPR data were normalized as 100%, in the presence of 10 μM L-glutamate and 10 μM glycine, while as 0%, in the presence of assay buffer. […] Then, data were normalized by Excel 2013 (Microsoft Office) software, using wells added with 10 μM L-glutamate plus 10 μM glycine (column 23) as high control, and wells added with assay buffer only (column 24) as low control. To assess plate quality, Z′ calculations were performed in Excel. Z′ was calculated according to following equation: Z′ = 1–3(σh + σl)/|μh – μL| where μ and σ are the means and the standard deviations of the means of high (h) and low (l) controls, respectively. Compound concentration–response curves were plotted by Prism 8 GraphPad software, in the different experimental conditions (see Supporting Information). Data were analyzed using least-squares regression fitting, to fit data to a standard four parameters logistic equation using GraphPad Prism10. This regression fitting allowed the calculation of pIC50 and the corresponding SEM.

[2] = target: T1, GluN1-GluN2B NMDAR subtype (Homo sapiens, UniProt Q05586+Q13224); assay: FLIPR/Ca2+ assay, NMDAR GluN1-GluN2B subtype in CHO cells; type: cell-based; settings: CHO cells, 10 μM L-glutamate and 10 μM glycine; n.d. = 50% of inhibition could not be reached at the highest concentration used
T1 construct: host or cells: NR1-2B-CHO cells, constitutive expression
T1 sequence (Q13224 27-1484, other chains not shown): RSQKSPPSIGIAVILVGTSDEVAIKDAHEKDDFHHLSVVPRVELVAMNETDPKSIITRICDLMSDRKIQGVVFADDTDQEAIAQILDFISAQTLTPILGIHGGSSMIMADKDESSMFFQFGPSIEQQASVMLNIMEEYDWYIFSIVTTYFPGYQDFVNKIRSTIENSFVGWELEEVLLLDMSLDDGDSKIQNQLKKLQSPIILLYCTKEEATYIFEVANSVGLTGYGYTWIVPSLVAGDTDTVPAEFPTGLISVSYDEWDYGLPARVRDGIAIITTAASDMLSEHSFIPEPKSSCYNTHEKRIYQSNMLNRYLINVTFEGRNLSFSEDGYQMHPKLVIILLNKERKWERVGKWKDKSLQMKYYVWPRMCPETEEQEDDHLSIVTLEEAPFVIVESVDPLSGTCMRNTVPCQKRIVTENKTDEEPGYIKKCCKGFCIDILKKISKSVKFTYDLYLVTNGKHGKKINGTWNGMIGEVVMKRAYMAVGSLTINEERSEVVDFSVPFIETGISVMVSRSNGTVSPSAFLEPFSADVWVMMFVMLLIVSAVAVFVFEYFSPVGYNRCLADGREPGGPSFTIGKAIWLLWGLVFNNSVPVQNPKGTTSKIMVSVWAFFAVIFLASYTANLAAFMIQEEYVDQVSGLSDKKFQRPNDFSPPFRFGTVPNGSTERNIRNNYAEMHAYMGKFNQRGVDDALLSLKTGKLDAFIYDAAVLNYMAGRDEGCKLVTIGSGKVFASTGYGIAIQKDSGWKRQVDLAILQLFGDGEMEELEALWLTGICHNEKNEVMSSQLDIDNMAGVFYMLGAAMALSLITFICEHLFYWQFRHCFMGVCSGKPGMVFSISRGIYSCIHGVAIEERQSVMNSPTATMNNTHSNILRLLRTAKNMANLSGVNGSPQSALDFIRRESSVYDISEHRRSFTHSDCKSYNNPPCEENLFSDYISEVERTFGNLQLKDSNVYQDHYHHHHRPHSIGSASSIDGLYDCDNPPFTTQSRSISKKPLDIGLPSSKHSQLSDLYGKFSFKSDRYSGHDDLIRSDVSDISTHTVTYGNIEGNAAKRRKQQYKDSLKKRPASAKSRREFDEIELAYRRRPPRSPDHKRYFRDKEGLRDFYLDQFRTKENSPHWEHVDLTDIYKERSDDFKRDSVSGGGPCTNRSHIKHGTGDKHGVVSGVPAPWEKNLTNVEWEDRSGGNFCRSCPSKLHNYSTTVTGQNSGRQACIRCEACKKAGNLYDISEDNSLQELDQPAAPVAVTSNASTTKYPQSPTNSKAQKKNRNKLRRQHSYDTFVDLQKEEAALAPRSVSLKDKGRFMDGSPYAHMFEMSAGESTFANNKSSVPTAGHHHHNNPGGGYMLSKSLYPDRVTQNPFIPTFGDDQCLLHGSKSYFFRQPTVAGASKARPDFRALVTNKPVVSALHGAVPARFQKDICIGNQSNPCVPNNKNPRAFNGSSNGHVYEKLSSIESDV
Method: as §1, §2

[3] = target: GluN1-GluN2C NMDAR subtype (Homo sapiens, UniProt Q05586+Q14957); assay: FLIPR/Ca2+ assay, NMDAR GluN1-GluN2C subtype in CHO cells; type: cell-based; settings: CHO cells, 10 μM L-glutamate and 10 μM glycine; n.d. = 50% of inhibition could not be reached at the highest concentration used
Method: as §1, §2

[4] = target: GluN1-GluN2D NMDAR subtype (Homo sapiens, UniProt O15399+Q05586); assay: FLIPR/Ca2+ assay, NMDAR GluN1-GluN2D subtype in CHO cells; type: cell-based; settings: CHO cells, 10 μM L-glutamate and 10 μM glycine; n.d. = 50% of inhibition could not be reached at the highest concentration used
Method: as §1, §2

[5] = system: Glutamate, NMDA, Phencyclidine binding site; assay: Radioligand displacement binding assay, [3H]TCP, NMDA; set-up: species or system Wistar rat
Histamine H1 = target: T2, Histamine H1 (Homo sapiens, UniProt P35367); assay: Radioligand displacement binding assay, [3H]pyrilamine, H1
T2 construct: host or cells: CHO-K1
T2 sequence (P35367 whole entry): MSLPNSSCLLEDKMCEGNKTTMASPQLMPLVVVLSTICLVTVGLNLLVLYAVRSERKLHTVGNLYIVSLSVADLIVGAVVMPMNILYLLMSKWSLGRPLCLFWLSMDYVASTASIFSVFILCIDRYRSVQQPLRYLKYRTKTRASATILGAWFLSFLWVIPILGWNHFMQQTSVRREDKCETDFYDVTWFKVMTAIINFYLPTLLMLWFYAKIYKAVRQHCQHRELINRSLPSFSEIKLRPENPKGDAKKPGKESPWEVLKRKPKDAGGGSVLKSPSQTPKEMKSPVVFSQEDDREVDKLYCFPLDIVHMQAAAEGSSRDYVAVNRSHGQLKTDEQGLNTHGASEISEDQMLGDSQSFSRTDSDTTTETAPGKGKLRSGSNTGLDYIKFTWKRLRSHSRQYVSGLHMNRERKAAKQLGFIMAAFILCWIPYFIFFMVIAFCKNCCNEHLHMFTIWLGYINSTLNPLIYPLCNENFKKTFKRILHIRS

Muscarinic M5 = target: T3, Muscarinic M5 (Homo sapiens, UniProt P08912); assay: Radioligand displacement binding assay, [3H]N-methylscopolamine, M5
T3 construct: host or cells: CHO-K1
T3 sequence (P08912 1-532): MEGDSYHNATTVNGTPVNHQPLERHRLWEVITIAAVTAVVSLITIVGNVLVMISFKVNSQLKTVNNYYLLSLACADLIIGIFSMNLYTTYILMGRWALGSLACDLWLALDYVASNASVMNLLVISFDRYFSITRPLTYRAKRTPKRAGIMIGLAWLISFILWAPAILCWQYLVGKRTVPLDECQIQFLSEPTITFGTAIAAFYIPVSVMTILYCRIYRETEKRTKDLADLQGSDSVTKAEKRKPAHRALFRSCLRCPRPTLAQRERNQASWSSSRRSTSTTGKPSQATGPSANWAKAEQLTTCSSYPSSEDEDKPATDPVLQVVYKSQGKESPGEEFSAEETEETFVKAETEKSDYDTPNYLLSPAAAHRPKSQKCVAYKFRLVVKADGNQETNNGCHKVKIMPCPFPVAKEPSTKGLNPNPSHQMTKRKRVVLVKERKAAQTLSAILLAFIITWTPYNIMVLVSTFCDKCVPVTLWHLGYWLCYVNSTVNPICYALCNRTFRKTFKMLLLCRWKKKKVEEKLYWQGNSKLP

μ opioid receptor (MOP) = target: T4, μ opioid receptor (MOP) (Homo sapiens, UniProt P35372); assay: biochemical; type: binding; settings: for inhibition at 0.3 µM / inhibition at 3 µM: read-out: % inhibition of binding, MOP
T4 construct: host or cells: CHO-K1
T4 sequence (P35372 whole entry): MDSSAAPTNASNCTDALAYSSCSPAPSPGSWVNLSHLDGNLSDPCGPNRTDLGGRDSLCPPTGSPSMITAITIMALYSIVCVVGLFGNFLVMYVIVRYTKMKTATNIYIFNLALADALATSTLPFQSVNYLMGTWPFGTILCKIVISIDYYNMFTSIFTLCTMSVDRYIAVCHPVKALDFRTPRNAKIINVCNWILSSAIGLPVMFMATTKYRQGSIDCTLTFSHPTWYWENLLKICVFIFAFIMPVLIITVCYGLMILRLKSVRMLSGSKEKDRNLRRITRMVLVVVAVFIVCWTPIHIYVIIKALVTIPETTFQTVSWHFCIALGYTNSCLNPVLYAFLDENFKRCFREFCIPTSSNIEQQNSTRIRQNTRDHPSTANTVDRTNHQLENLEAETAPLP

Serotonin 5-HT1A = target: T5, Serotonin 5-HT1A (Homo sapiens, UniProt P08908); assay: Radioligand displacement binding assay, [3H]8-OH-DPAT, 5-HT1A
T5 construct: host or cells: CHO-K1
T5 sequence (P08908 1-422): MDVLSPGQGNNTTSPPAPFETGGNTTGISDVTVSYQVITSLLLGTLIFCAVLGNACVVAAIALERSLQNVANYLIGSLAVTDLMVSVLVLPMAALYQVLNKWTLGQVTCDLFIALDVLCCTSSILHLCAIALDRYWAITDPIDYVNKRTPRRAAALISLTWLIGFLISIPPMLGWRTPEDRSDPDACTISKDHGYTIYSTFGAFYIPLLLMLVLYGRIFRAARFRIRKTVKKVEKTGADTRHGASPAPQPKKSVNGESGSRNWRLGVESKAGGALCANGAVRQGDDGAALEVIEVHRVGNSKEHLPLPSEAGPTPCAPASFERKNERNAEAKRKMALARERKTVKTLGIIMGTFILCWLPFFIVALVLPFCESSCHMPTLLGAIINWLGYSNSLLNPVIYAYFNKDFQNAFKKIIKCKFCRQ

Serotonin 5-HT2A = target: T6, Serotonin 5-HT2A (Homo sapiens, UniProt P28223); assay: Radioligand displacement binding assay, [3H]ketanserin, 5-HT2A
T6 construct: host or cells: CHO-K1

Serotonin 5-HT2C = target: T7, Serotonin 5-HT2C (Homo sapiens, UniProt P28335); assay: Radioligand displacement binding assay, [3H]mesulergine, 5-HT2C
T7 construct: host or cells: CHO-K1
T7 sequence (P28335 33-458): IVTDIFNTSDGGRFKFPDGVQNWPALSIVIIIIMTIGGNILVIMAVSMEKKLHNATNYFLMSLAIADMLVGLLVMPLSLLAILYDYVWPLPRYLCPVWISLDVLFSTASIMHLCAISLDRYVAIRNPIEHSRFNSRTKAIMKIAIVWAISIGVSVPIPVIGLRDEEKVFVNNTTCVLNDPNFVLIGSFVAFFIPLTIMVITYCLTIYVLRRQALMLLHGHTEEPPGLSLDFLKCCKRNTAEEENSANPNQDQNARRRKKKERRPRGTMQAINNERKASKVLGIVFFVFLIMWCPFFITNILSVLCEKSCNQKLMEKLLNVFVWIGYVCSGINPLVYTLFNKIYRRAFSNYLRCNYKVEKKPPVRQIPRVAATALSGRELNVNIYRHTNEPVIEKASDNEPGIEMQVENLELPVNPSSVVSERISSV

Serotonin 5-HT5A = target: T8, Serotonin 5-HT5A (Homo sapiens, UniProt P47898); assay: Radioligand displacement binding assay, [3H]LSD, 5-HT5A
T8 construct: host or cells: CHO-K1
T8 sequence (P47898 whole entry): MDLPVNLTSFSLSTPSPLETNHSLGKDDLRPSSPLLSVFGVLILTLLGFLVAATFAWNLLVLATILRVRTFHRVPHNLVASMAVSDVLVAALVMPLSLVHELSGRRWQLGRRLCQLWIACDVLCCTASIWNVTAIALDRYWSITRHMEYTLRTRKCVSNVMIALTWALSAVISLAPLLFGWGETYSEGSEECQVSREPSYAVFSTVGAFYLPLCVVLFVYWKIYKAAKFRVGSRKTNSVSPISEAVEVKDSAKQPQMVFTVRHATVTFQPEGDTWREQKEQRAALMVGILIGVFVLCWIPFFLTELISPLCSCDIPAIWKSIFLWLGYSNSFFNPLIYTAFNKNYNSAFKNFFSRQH

Serotonin 5-HT7 = target: T9, Serotonin 5-HT7 (Homo sapiens, UniProt P34969); assay: Radioligand displacement binding assay, [3H]LSD, 5-HT7
T9 construct: host or cells: CHO-K1

Sigma σ1 = target: T10, Sigma σ1 (Homo sapiens, UniProt Q99720); assay: Radioligand displacement binding assay, [3H]pentazocine, sigma σ1
T10 construct: Sigma σ1; Source: Human Jurkat cells; host or cells: Jurkat
T10 sequence (Q99720 whole entry): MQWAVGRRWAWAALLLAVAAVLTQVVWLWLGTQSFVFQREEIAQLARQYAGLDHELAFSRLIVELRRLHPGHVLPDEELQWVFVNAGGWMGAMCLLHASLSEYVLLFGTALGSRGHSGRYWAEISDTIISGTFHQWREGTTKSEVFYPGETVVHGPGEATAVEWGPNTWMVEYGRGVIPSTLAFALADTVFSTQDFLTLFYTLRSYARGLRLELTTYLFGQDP

[6] = target: T11, Norepinephrine transporter NET (Homo sapiens, UniProt P23975); assay: Radioligand displacement binding assay, [125I]RTI-55, NET
T11 construct: host or cells: MDCK

[7] = target: T12, Serotonin transporter SERT (Homo sapiens, UniProt P31645); assay: Radioligand displacement binding assay, [3H]paroxetine, SERT
T12 construct: host or cells: HEK-293
T12 sequence (P31645 whole entry): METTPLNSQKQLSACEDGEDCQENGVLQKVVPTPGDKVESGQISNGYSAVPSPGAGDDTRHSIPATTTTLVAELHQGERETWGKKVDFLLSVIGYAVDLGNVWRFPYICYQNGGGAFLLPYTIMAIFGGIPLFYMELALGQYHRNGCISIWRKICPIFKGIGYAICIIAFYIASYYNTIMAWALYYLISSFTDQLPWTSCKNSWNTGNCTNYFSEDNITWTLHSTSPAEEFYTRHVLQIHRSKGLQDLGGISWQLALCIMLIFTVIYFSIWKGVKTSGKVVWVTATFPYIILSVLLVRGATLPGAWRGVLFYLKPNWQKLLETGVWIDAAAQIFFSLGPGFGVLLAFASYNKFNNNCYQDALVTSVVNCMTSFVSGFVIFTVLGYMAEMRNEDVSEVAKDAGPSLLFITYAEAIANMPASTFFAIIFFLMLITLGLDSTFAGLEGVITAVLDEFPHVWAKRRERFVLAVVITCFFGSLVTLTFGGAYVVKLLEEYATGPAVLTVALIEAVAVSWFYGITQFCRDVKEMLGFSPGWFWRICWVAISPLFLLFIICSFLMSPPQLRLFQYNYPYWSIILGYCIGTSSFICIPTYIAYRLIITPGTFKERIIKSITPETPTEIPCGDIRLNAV

Sequence of GluN1-GluN2A NMDAR subtype (Q12879 23-1464, other chains not shown): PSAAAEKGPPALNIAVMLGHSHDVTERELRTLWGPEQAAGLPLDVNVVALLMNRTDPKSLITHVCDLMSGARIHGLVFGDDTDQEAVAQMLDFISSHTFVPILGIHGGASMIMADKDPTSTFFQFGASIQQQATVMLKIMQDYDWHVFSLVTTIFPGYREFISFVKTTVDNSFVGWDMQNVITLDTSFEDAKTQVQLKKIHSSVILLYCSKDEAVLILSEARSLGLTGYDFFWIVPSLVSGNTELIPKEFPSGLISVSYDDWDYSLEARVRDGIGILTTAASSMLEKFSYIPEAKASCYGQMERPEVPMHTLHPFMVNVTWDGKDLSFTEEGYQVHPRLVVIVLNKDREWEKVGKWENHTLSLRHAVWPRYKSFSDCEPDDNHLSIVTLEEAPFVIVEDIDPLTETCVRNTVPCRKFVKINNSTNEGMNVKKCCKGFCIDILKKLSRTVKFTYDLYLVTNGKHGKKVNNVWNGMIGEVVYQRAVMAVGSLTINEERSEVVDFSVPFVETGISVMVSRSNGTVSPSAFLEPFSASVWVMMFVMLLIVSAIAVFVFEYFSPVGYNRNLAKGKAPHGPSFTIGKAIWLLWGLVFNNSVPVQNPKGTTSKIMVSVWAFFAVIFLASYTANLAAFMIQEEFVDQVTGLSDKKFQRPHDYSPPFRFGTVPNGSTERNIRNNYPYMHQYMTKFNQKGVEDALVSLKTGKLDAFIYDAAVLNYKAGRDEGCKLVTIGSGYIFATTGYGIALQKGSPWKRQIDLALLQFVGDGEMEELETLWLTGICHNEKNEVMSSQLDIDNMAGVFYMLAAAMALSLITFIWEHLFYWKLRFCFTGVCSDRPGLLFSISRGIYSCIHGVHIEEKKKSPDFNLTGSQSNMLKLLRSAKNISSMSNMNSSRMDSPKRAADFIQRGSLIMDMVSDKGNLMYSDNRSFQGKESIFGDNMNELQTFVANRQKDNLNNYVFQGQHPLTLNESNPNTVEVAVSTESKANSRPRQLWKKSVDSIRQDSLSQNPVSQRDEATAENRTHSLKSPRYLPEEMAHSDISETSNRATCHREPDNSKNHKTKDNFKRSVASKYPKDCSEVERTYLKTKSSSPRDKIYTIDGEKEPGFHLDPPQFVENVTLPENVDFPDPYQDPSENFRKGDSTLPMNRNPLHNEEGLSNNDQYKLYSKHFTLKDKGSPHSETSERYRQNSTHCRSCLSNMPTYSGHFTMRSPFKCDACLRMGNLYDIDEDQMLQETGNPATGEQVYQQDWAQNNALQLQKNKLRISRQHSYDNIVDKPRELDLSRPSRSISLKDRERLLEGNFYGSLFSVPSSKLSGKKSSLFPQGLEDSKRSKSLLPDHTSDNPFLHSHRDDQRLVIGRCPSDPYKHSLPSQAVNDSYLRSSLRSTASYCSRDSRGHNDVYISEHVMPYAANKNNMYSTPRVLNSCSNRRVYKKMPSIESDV

| Compound | pIC50 (mean ± SEM) GluN1-GluN2A [1] | pIC50 (mean ± SEM) GluN1-GluN2B [2] | pIC50 (mean ± SEM) GluN1-GluN2C [3] | pIC50 (mean ± SEM) GluN1-GluN2D [4] | % inhibition of binding, NMDA ([5]; 1 μM) | % inhibition of binding, NMDA ([5]; 10 μM) | inhibition at 10 µM (Histamine H1) | inhibition at 30 µM (Histamine H1) | inhibition at 1 µM (Muscarinic M5) | inhibition at 10 µM (Muscarinic M5) | inhibition at 0.3 µM (μ opioid receptor (MOP)) | inhibition at 3 µM (μ opioid receptor (MOP)) | inhibition at 0.3 µM (Serotonin 5-HT1A) | inhibition at 3 µM (Serotonin 5-HT1A) | inhibition at 0.3 µM (Serotonin 5-HT2A) | inhibition at 3 µM (Serotonin 5-HT2A) | inhibition at 0.3 µM (Serotonin 5-HT2C) | inhibition at 3 µM (Serotonin 5-HT2C) | inhibition at 1 µM (Serotonin 5-HT5A) | inhibition at 10 µM (Serotonin 5-HT5A) | other results |
| --- | --- | --- | --- | --- | --- | --- | --- | --- | --- | --- | --- | --- | --- | --- | --- | --- | --- | --- | --- | --- | --- |
| CC[C@H](O)C(C[C@@H](C)NC)(c1ccccc1)c1ccccc1 [(3S,6R)-NML, (3S,6R)-6-(methylamino)-4,4-diphenylheptan-3-ol] | 4.8 ± 0.050 | 4.6 ± 0.047 | 5.0 ± 0.049 | 5.0 ± 0.058 | -5% | 51% | 7% | 27% | 21% | 74% | 2% | 26% | -1% | -4% | -3% | 11% | 15% | 68% | 4% | 42% | pKi (mean ± SEM) [3H]TCP, NMDA ([5]; Wistar rat cerebral cortex, 4.0 nM [3H]TCP): 5.54 ± 0.09; pKi (mean ± SEM) [3H]diprenorphine, MOP (μ opioid receptor (MOP)): 5.55 ± 0.17; inhibition at 1 µM (Serotonin 5-HT7): 11%; inhibition at 10 µM (Serotonin 5-HT7): 7%; inhibition at 0.3 µM (Sigma σ1): -1%; inhibition at 3 µM (Sigma σ1): 26%; inhibition at 1 µM [6]: 4%; inhibition at 10 µM [6]: 9%; inhibition at 1 µM [7]: 10%; % inhibition of binding, SERT ([7]; 10 μM): displaced; inhibition at 10 µM ([7]; 10 μM): 61% |
| CC[C@H](O)C(C[C@@H](C)N)(c1ccccc1)c1ccccc1 [(3S,6R)-DNML, (3S,6R)-6-amino-4,4-diphenylheptan-3-ol] | 4.5 ± 0.031 | 4.4 ± 0.042 | 4.6 ± 0.038 | 4.7 ± 0.061 | 8% | 38% | 15% | 28% | 12% | 39% | 9% | 23% | -11% | -1% | 9% | 10% | 9% | 27% | -1% | 11% | inhibition at 1 µM (Serotonin 5-HT7): 8%; inhibition at 10 µM (Serotonin 5-HT7): 5%; inhibition at 0.3 µM (Sigma σ1): -4%; inhibition at 3 µM (Sigma σ1): 18%; inhibition at 1 µM [6]: 0%; inhibition at 10 µM [6]: 22%; inhibition at 1 µM [7]: 15%; inhibition at 10 µM ([7]; 10 μM): 36% |
| CC[C@@H](O)C(C[C@@H](C)N)(c1ccccc1)c1ccccc1 [(3R,6R)-DNML, (3R,6R)-6-amino-4,4-diphenylheptan-3-ol] | 4.8 ± 0.060 | 4.6 ± 0.054 | 4.7 ± 0.050 | 4.7 ± 0.058 | 12% | 54% | 3% | 9% | -1% | 33% | -7% | 9% | 0% | 4% | 6% | 8% | 7% | 16% | 4% | -4% | inhibition at 1 µM (Serotonin 5-HT7): 12%; inhibition at 10 µM (Serotonin 5-HT7): 8%; inhibition at 0.3 µM (Sigma σ1): 14%; inhibition at 3 µM (Sigma σ1): 47%; inhibition at 1 µM [6]: 4%; inhibition at 10 µM [6]: 6%; inhibition at 1 µM [7]: -1%; inhibition at 10 µM ([7]; 10 μM): 20% |
